Data reported in patent US20090143279A1 (priority 2007, published 2009).
Like-named read-outs stand apart in the source and are kept apart here.

What was measured:
[1] = test system: mitochondrial membrane potential; format: cell-based, mouse; conditions: for ΔΨm (composite Z-score): normalized score vs mock-treated (DMSO) wells
reactive oxygen species = format: cell-based, mouse; conditions: for ROS (composite Z-score): normalized score vs mock-treated (DMSO) wells
OXPHOS gene expression = format: cell-based, mouse; conditions: for GE-HTS (composite Z-score): normalized score vs mock-treated (DMSO) wells
nuOXPHOS transcripts = format: cell-based, mouse; conditions: for nucOX (composite Z-score): normalized score vs mock-treated (DMSO) wells
mtOXPHOS transcripts = format: cell-based, mouse; conditions: for mitoOX (composite Z-score): normalized score vs mock-treated (DMSO) wells
cytochrome c = format: cell-based, mouse; conditions: for cyt c (composite Z-score): normalized score vs mock-treated (DMSO) wells
C2C12 myotubes = conditions: for Viability (composite Z-score): normalized score vs mock-treated (DMSO) wells
[2] = test system: cellular dehydrogenase activity; conditions: for MTT (composite Z-score): normalized score vs mock-treated (DMSO) wells
[3] = normalized composite Z-score vs mock-treated (DMSO) wells, Conc 20 μM
[4] = composite Z-score vs mock-treated (DMSO) wells, Conc 20 μM
[5] = 20 μM, composite Z-score vs DMSO
[6] = composite Z-score vs DMSO, Conc 20 μM
[7] = composite Z-score vs DMSO wells, Conc 20 μM

## O=C(O[C@@H]1Cc2c(O)cc(O)cc2O[C@@H]1c1cc(O)c(O)c(O)c1-c1c([C@H]2Oc3cc(O)cc(O)c3C[C@H]2OC(=O)c2cc(O)c(O)c(O)c2)cc(O)c(O)c1O)c1cc(O)c(O)c(O)c1 [2′,2′-bisepigallocatechin digallate]
[1]; [3]
  ΔΨm: −1.132
Reactive oxygen species; [3]
  ROS: −0.130
OXPHOS gene expression; [3]
  GE-HTS: −0.865
nuOXPHOS transcripts; [3]
  nucOX: −0.836
mtOXPHOS transcripts; [3]
  mitoOX: −0.808
Cytochrome c; [3]
  cyt c: 0.616
C2C12 myotubes; [3]
  Viability: 0.851
[2]; [3]
  MTT: −0.826

## CC(=O)O[C@@H]1C=C[C@]2(C)C(C[C@@H](OC(C)=O)[C@]3(C)C4=CC(=O)O[C@H](c5ccoc5)[C@@]4(C)CCC23)C1(C)C (stereo partly shown) [deoxygedunol acetate]
[1]; [4]
  ΔΨm: 0.137
Reactive oxygen species; [4]
  ROS: 1.251
OXPHOS gene expression; [4]
  GE-HTS: −0.815
nuOXPHOS transcripts; [4]
  nucOX: −0.850
mtOXPHOS transcripts; [4]
  mitoOX: −0.639
Cytochrome c; [4]
  cyt c: 0.095
C2C12 myotubes; [4]
  Viability: −0.767
[2]; [4]
  MTT: −1.930

## CC1(C)S[C@@H]2[C@H](NC(=O)COc3ccccc3)C(=O)N2[C@H]1C(=O)O [penicillin V]
[1]; [5]
  ΔΨm: −0.564
Reactive oxygen species; [5]
  ROS: 0.748
OXPHOS gene expression; [5]
  GE-HTS: −0.849
nuOXPHOS transcripts; [5]
  nucOX: −0.844
mtOXPHOS transcripts; [5]
  mitoOX: −0.654
Cytochrome c; [5]
  cyt c: 0.258
C2C12 myotubes; [5]
  Viability: 0.062
[2]; [5]
  MTT: −1.319

## CC1CCC(C(C)C)C(OC(=O)c2ccccc2)C1 (stereo not shown) [menthyl benzoate]
[1]; Conc 20 μM
  ΔΨm (composite Z-score): 0.016
Reactive oxygen species; Conc 20 μM
  ROS (composite Z-score): 1.375
OXPHOS gene expression; Conc 20 μM
  GE-HTS (composite Z-score): −0.115
nuOXPHOS transcripts; Conc 20 μM
  nucOX (composite Z-score): 0.047
mtOXPHOS transcripts; Conc 20 μM
  mitoOX (composite Z-score): −0.336
Cytochrome c; Conc 20 μM
  cyt c (composite Z-score): −0.724
C2C12 myotubes; Conc 20 μM
  Viability (composite Z-score): −0.151
[2]; Conc 20 μM
  MTT (composite Z-score): −1.026

## COc1cc(-c2coc3cc(OCc4ccccc4)c(OC)c(O)c3c2=O)cc(O)c1OC [irigenin, 7-benzyl ether]
[1]; [4]
  ΔΨm: 0.948
Reactive oxygen species; [4]
  ROS: 1.548
OXPHOS gene expression; [4]
  GE-HTS: −1.362
nuOXPHOS transcripts; [4]
  nucOX: −1.386
mtOXPHOS transcripts; [4]
  mitoOX: −1.100
Cytochrome c; [4]
  cyt c: −0.617
C2C12 myotubes; [4]
  Viability: −0.334
[2]; [4]
  MTT: −1.179

## ClC1=C(Cl)C2(Cl)C3C4CC(C5OC45)C3C1(Cl)C2(Cl)Cl (stereo not shown) [endrin]
[1]; [5]
  ΔΨm: 0.129
Reactive oxygen species; [5]
  ROS: 0.770
OXPHOS gene expression; [5]
  GE-HTS: −0.680
nuOXPHOS transcripts; [5]
  nucOX: −0.738
mtOXPHOS transcripts; [5]
  mitoOX: −0.385
Cytochrome c; [5]
  cyt c: 0.726
C2C12 myotubes; [5]
  Viability: 0.522
[2]; [5]
  MTT: −1.710

## CC(C)=CCCC1(C)C=Cc2c(O)c3c(c(CC=C(C)C)c2O1)OC12C(CC4CC1C(C)(C)OC2(C/C=C(/C)C(=O)O)C4O)C3=O (stereo not shown) [tetrahydrogambogic acid]
[1]; [4]
  ΔΨm: −1.438
Reactive oxygen species; [4]
  ROS: 0.460
OXPHOS gene expression; [4]
  GE-HTS: −0.478
nuOXPHOS transcripts; [4]
  nucOX: −0.409
mtOXPHOS transcripts; [4]
  mitoOX: −0.490
Cytochrome c; [4]
  cyt c: −0.932
C2C12 myotubes; [4]
  Viability: 1.434
[2]; [4]
  MTT: −1.090

## COC(=O)C[C@H]1C(C)(C)C(=O)[C@@H]2CC3C4=CC(=O)O[C@@H](c5ccoc5)[C@]4(C)CC[C@@H]3[C@@]1(C)C2=O (stereo partly shown) [carapin]
[1]; [4]
  ΔΨm: −0.524
Reactive oxygen species; [4]
  ROS: 1.897
OXPHOS gene expression; [4]
  GE-HTS: 0.512
nuOXPHOS transcripts; [4]
  nucOX: 0.665
mtOXPHOS transcripts; [4]
  mitoOX: 0.058
Cytochrome c; [4]
  cyt c: −0.096
C2C12 myotubes; [4]
  Viability: 1.424
[2]; [4]
  MTT: −0.925

## CC(=O)OCC(=O)[C@@]1(O)[C@H](C)C[C@H]2[C@@H]3CCC4=CC(=O)C=C[C@]4(C)[C@@]3(F)[C@@H](O)C[C@@]21C [dexamethasone acetate]
[1]; [6]
  ΔΨm: −0.439
Reactive oxygen species; [6]
  ROS: 0.067
OXPHOS gene expression; [6]
  GE-HTS: 0.461
nuOXPHOS transcripts; [6]
  nucOX: 0.516
mtOXPHOS transcripts; [6]
  mitoOX: 0.330
Cytochrome c; [6]
  cyt c: 0.174
C2C12 myotubes; [6]
  Viability: −1.518
[2]; [6]
  MTT: 0.058

## O[C@H]1[C@H](O)[C@@H](O)C2OC[C@H]1O2 [anhydroglucose]
[1]; [6]
  ΔΨm: −0.480
Reactive oxygen species; [6]
  ROS: 0.238
OXPHOS gene expression; [6]
  GE-HTS: −0.046
nuOXPHOS transcripts; [6]
  nucOX: 0.322
mtOXPHOS transcripts; [6]
  mitoOX: −0.745
Cytochrome c; [6]
  cyt c: 0.688
C2C12 myotubes; [6]
  Viability: 0.168
[2]; [6]
  MTT: 0.041

## CSCC[C@H](NC=O)C(=O)N[C@@H](CC(C)C)C(=O)N[C@@H](Cc1ccccc1)C(=O)O [N-formylmethionyl-leucylphenylalanine]
[1]; [7]
  ΔΨm: 0.476
Reactive oxygen species; [7]
  ROS: 1.017
OXPHOS gene expression; [7]
  GE-HTS: −0.370
nuOXPHOS transcripts; [7]
  nucOX: −0.517
mtOXPHOS transcripts; [7]
  mitoOX: −0.051
Cytochrome c; [7]
  cyt c: 0.374
C2C12 myotubes; [7]
  Viability: 0.354
[2]; [7]
  MTT: −1.240

## Cc1occc(=O)c1/C=C/O [2-methyl-3-hydroxyethylenepyran-4-one]
[1]; [3]
  ΔΨm: −0.608
Reactive oxygen species; [3]
  ROS: 0.234
OXPHOS gene expression; [3]
  GE-HTS: −0.128
nuOXPHOS transcripts; [3]
  nucOX: −0.012
mtOXPHOS transcripts; [3]
  mitoOX: −0.305
Cytochrome c; [3]
  cyt c: −0.244
C2C12 myotubes; [3]
  Viability: 0.309
[2]; [3]
  MTT: −0.725

## CCOC(=O)CCC(=O)O[C@H]1[C@H](O[C@@H]2[C@@H](C)[C@H](O[C@H]3C[C@@](C)(OC)[C@@H](O)[C@H](C)O3)[C@@H](C)C(=O)O[C@H](CC)[C@@](C)(O)[C@H](O)[C@@H](C)C(=O)[C@H](C)C[C@@]2(C)O)O[C@H](C)C[C@@H]1N(C)C [erythromycin ethylsuccinate]
[1]; [5]
  ΔΨm: −0.488
Reactive oxygen species; [5]
  ROS: 0.555
OXPHOS gene expression; [5]
  GE-HTS: −0.390
nuOXPHOS transcripts; [5]
  nucOX: −0.433
mtOXPHOS transcripts; [5]
  mitoOX: −0.163
Cytochrome c; [5]
  cyt c: 0.220
C2C12 myotubes; [5]
  Viability: −0.945
[2]; [5]
  MTT: −1.100

## CC(C)CCC[C@@H](C)C1CC[C@H]2[C@@H]3CCC4CC(=O)CC[C@]4(C)[C@H]3CC[C@]12C (stereo partly shown) [cholestanone]
[1]; Conc 20 μM
  ΔΨm (composite Z-score): −1.065
Reactive oxygen species; Conc 20 μM
  ROS (composite Z-score): 1.864
OXPHOS gene expression; Conc 20 μM
  GE-HTS (composite Z-score): 0.165
nuOXPHOS transcripts; Conc 20 μM
  nucOX (composite Z-score): 0.147
mtOXPHOS transcripts; Conc 20 μM
  mitoOX (composite Z-score): 0.214
Cytochrome c; Conc 20 μM
  cyt c (composite Z-score): 0.272
C2C12 myotubes; Conc 20 μM
  Viability (composite Z-score): −0.208
[2]; Conc 20 μM
  MTT (composite Z-score): −2.192
